The record followed here is patent US20160082109A1, “COPOLYMER AND NANOPARTICLES OBTAINED THEREFROM FOR DRUG DELIVERY” (FONDAZIONE ISTITUTO ITALIANO DI TECNOLOGIA, priority 2013, published 2016).

The format of data set [1] is physicochemical. On the procedure: The tests were conducted on 2±0.3 mg of polymer, placed in polypropyplene vials filled with 1 ml of deionized H2O and kept in a thermostatic bath at 37° C. for 33 days. At regular intervals the samples were withdrawn, the degradation medium was separated for evaluation of the pH while the degraded polymers were dried in a ventilated stove at 50° C. for 3 h and then analysed by gel permeation chromatography (GPC).
The pH measurements were conducted on the degradation means (deionized H2O) after pre-set times. In particular, the degradation means were withdrawn from the vials containing the polymer, prepared as reported in example 1, during the degradation tests in the previous example and the measurement was performed using a pH-meter on the samples just taken at a temperature of 37° C.

Data set [2] relates to bEND.3 cells. In words: Confocal microscopy of nanoparticle internalization and RhB delivery. The format is cell-based, mice. The following applies: 6 h; nanoparticles 10 μg/ml, free RhB 113 ng/ml. On the procedure:
Immortalized endothelial cells of mice, bEND.3 (American Type Culture Collection, Manassas, Va., USA) were cultivated in a DMEM medium with high levels of glucose in the presence of 10% of FBS, L-glutamine 2 mM, 1000 U/ml penicillin and 1 mg/ml of streptomycin. The cells split from 2 to 20 times were kept in a humidified incubator for cell cultures at 37° C. and 5%, CO2. This cell line was chosen because it is a suitable model for providing an endothelial barrier. […] The free rhodamine (113 ng/ml, the same quantity of rhodamine administered with the nanoparticles), was used as negative control for the absorption test for nanoparticles loaded with rhodamine B. […] Lysotracker-red-[…] 50 nM was added to mark the lysosomes and verify the intracellular localization of the nanoparticles. To understand the release potential by the nanoparticles, the internalization of nanoparticles loaded with RhB by bEND.3 cells was compared with the detection of fluorescent RhB not loaded on nanoparticles (FIGS. 15a and 15b respectively).

Turning to polycaprolactone [PCL], the “pH of the degradation means (lower values / end of the test)” value in data set [1] is “comparable”.
As to `CCN(CC)c1ccc2c(-c3ccccc3C(=O)O)c3ccc(=[N+](CC)CC)cc-3oc2c1.[Cl-]` [Free RhB, rhodamine B], the “RhB internalization in cells” value in data set [2] is recorded as “not observed”.
